Like-named read-outs stand apart in the source and are kept apart here.

Experiment [1] can be described thus: Peroxynitrite (ONOO−) scavenging activity. The following applies: for ONOO− Inhibition (%), Mean ± SD: at 5 µM; for EC50: mean ± SD of triplicates. How it is done: Peroxynitrite (ONOO^−) scavenging activity was carried ou with slight modifications. Shortly, 10 µL of sample solutions/positive control (penicillamine) were mixed with rhodamine buffer (pH 7.4) containing 50 mM sodium phosphate dibasic, 50 mM sodium phosphate monobasic, 90 mM sodium chloride, 5 mM potassium chloride, and 100 μM DTPA. The final DHR 123 concentration was 5 µM. The fluorescent intensities were measured after 5 min with/without authentic ONOO^− using a fluorescence microplate reader (Spectramax Gemini XPS, Molecular Devices) at wavelenghts of 485 and 530 nm of excitation and emission, respectively.

The target in another experiment is yeast α-glucosidase. As to the kind of experiment: In vitro α-glucosidase inhibitory activity assay (p-NPG substrate). In kind it is biochemical. Particulars: for Ki: Dixon plot; for type of α-glucosidase inhibition (in words): Lineweaver-Burk and Dixon plots; for α-Glucosidase Inhibition (%), Mean ± SD: at 100 µM; for IC50: mean ± SD of triplicates. The method, then:
The inhibitory activity against yeast α-glucosidase enzyme was carried out spectrophotometrically in a 96-well micro-plate reader (Molecular Devices, Sunnyvale, CA, USA), using a procedure reported by Li et al. with slight modifications. […] After 15 min of incubation, the reaction was ceased using 80 µL of stop solution (0.2 M sodium carbonate) and absorbance was measured at 405 nm.
(§1) The inhibition constant (Ki) and inhibition mode of α-glucosidase and BACE1 were calculated with Lineweaver-Burk and Dixon plots. […] Each graph was generated using SigmaPlot 12.0 (Systat Software Inc., San Jose, CA, USA) and GraphPad Prism 5 (GraphPad Prism Software, Inc., La Jolla, CA, USA).

Experiment [2] is described as follows: Pro-oxidant assay (reducing power). Particulars: ascorbic acid as positive control; Figure 3. How it is done:
The pro-oxidant activity of isolated compounds were assessed with slight modifications. Shortly, 250 µL of sample solutions/positive control (ascorbic acid) dissolved in 0.2 M phosphate buffer (pH 6.6) and 25 µL of 1% potassium ferricyanide […] were incubated at 50 °C for 20 min. After that, an equal volume of 10% trichloroacetic acid was added and then centriguged at 3000 g for 10 min. The supernatant (500 µL) and distilled water (500 µL) was mixed followed by addition of 0.1% ferric chloride (0.1 mL). Immediately, absorbance were measured spectrophotometrically at 700 nm.

In another experiment the test system is α-glucosidase. The following applies: cited from earlier work.
A further experiment deals with T1, human recombinant PTP1B (Homo sapiens, UniProt P18031).
T1 construct: purchased Biomol International, LLP (Plymouth Meeting, PA, USA)
T1 sequence (P18031 1-435): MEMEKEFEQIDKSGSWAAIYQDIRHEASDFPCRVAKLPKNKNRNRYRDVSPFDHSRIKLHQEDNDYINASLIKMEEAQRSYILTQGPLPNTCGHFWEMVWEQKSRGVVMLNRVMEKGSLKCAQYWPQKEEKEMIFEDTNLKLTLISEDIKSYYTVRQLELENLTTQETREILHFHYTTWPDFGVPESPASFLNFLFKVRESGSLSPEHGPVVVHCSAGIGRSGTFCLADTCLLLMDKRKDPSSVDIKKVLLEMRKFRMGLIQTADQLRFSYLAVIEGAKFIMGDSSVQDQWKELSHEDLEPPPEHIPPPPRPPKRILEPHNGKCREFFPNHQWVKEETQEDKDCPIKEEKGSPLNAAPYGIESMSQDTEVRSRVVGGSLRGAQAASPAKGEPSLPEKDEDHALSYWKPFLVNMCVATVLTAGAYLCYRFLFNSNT
As to the kind of experiment: In vitro PTP1B inhibitory activity assay (p-NPP substrate). Format: biochemical. Particulars: mean ± SD of triplicates. How it is done: The inhibitory activity of the isolated compounds against human recombinant PTP1B was evaluated using p-NPP as a substrate with slight modifications. […] After incubation, the reaction was ceased using 10 µL of stop solution (10 mM sodium hydroxide) and absorbance was measured at 405 nm.

A further experiment addresses T2, BACE1 (Homo sapiens, UniProt P56817).
T2 construct: purchased PanVera Corp. (Madison, WI, USA)
As to the kind of experiment: In vitro BACE1 enzyme assay (FRET kit). In kind it is biochemical. The method, then: Each assay was carried out according to the supplied instructions provided by the manufacturer with slight modifications. […] After incubation, the reaction was ceased using 10 µL of BACE1 stop solution and absorbance was measured at 545 nm […] and 585 nm (emission) wavelengths using microplate spectrofluorometer (Spectramax Gemini XPS, Molecular Devices).
as §1

The nature of experiment [3]: DPPH radical scavenging activity. The following applies: for DPPH Inhibition (%), Mean ± SD: at 5 µM; for EC50: mean ± SD of triplicates. How it is done: DPPH radical scavenging activity were carried out using procedures previously described with slight modifications. Shortly, 160 µL of sample solutions/positive control (ascorbic acid) were mixed with 40 µL of DPPH solution and incubated at room temperature for 30 min. After that, absornace were measured at 520 nm using a microplate reader spectrophotometer VERSAmax (Molecular Devices).
Background: The DPPH test is a chemical assay of radical scavenging.

[4] abbreviates: read-out: BACE1 Inhibition (%), Mean ± SD.

T2 sequence (P56817 46-501): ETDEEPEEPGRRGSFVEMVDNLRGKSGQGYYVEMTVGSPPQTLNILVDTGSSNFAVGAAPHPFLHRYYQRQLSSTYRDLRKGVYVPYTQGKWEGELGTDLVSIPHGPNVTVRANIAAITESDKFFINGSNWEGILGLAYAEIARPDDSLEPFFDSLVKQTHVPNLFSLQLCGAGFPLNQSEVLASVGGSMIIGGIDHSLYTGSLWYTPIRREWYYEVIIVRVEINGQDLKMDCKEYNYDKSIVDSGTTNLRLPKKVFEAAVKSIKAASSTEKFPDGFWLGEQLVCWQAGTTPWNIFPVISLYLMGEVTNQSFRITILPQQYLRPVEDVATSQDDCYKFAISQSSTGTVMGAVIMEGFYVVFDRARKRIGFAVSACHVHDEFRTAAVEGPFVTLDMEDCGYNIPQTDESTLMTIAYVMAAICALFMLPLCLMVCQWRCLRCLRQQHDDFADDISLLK

What is called EC50 is the concentration that produces a half-maximal response. A lower EC50 goes with an effect from little substance. By Ki is commonly meant a dissociation constant, usually derived from enzyme kinetics or from competition with a known ligand. Lower therefore signals higher affinity. As usually defined, the IC50 is the concentration that inhibits the measured activity by half. The term inhibition denotes the change of the read-out against control, counted positive when it falls. With `O=c1cc(-c2ccc(O)c(O)c2)oc2cc(O)cc(O)c12` [Luteolin, luteolin], in experiment [1], the “ONOO− Inhibition (%), Mean ± SD” value turned out to be 85.21 ± 1.61 %. The EC50 came to 0.86 ± 0.04 µM in experiment [1] and 3.05 ± 0.06 µM in experiment [3]. Besides, the affinity on yeast α-glucosidase corresponds to a Ki of 52 µM. Moreover, in the experiment with yeast α-glucosidase, the “type of α-glucosidase inhibition (in words)” value is listed as “non-competitive”. For the same molecule, the “α-Glucosidase Inhibition (%), Mean ± SD” value in the experiment on yeast α-glucosidase came to 69.12 ± 1.20 %. Also, the IC50 on yeast α-glucosidase is 51.3 ± 1.23 µM; at α-glucosidase (mixed type inhibition, ref Xu et al. [35]), 18.6 µM; on α-glucosidase (non-competitive inhibition, ref Ha et al. [28]), 45.4 µM; at α-glucosidase (ref Proença et al. [34]), 46 ± 6 µM; on α-glucosidase (reversible, non-competitive, ref Yan et al. [29]), 172 µM; at human recombinant PTP1B, more than 400 µM. Also, the “potency against α-glucosidase compared with the positive control, acarbose” value in the experiment with yeast α-glucosidase (ratio of IC50 values) was “five-fold more potent”. Also, the “reducing power (pro-oxidant activity)” value in experiment [2] is given as “lower reducing power than positive control ascorbic acid”. In the experiment with α-glucosidase (at 200 µM, mixed type (close to non-competitive), ref Tadera et al. [31]), the α-glucosidase inhibition percentage is 92%. Besides, in the experiment with α-glucosidase (at a concentration of 0.5 mg/mL, ref Kim et al. [32]), the α-glucosidase inhibition was 36%. Moreover, at BACE1 (Lineweaver-Burk and Dixon plots), the “type of BACE1 inhibition (in words)” value is “non-competitive”. Further, the inhibition at 100 µM on BACE1 (setting [4]) worked out at 73.73 ± 0.57%. In experiment [3], the “DPPH Inhibition (%), Mean ± SD” value was determined as 76.65 ± 0.73 %.

For `O=C1O[C@H]([C@@H](O)CO)C(O)=C1O` [Ascorbic acid, ascorbic acid, reference compound], in experiment [3], the “DPPH Inhibition (%), Mean ± SD” value was determined as 18.72 ± 0.44 % and the EC50 came to 21.35 ± 0.09 µM.

As to `O=c1cc(-c2ccc(O)c(O)c2)oc2cc(O)cc(O[C@@H]3O[C@H](CO)[C@@H](O)[C@H](O)[C@H]3O)c12` [Luteolin 5-O-β-D-glucopyranoside, luteolin 5-O-β-D-glucopyranoside], in experiment [1], the “ONOO− Inhibition (%), Mean ± SD” value came out at 79.23 ± 4.95 % and a half-maximal response (EC50) required 0.5 ± 0.03 µM. On yeast α-glucosidase, the Ki turned out to be 272 µM; the “type of α-glucosidase inhibition (in words)” value is recorded as “mixed type of inhibition”; the “α-Glucosidase Inhibition (%), Mean ± SD” value is recorded as 14.02 ± 1.45 %; half-maximal inhibition (IC50) was put at 270 ± 4.69 µM. The “reducing power (pro-oxidant activity)” value in experiment [2] was “higher reducing power”. Further, the concentration for half-maximal inhibition (IC50) at human recombinant PTP1B is more than 400 µM. Besides, the inhibition at 100 µM on BACE1 (at 100 µM, read-out: BACE1 Inhibition (%), Mean ± SD) amounted to 17.5 ± 1.65%. The IC50 against BACE1 (mean ± SD of triplicates) turned out to be 970 ± 7.83 µM. Besides, in experiment [3], the “DPPH Inhibition (%), Mean ± SD” value is on record as 52.43 ± 0.53 % and the EC50 is 4.76 ± 0.05 µM.

Consider `O=c1c(O)c(-c2ccc(O)c(O)c2)oc2cc(O)cc(O)c12` [Quercetin, quercetin, reference compound], for which, at BACE1 (setting [4]), the inhibition at 4.5 µg/mL stood at 70 ± 3.91% and the inhibition at 10 µM worked out at 67.6 ± 4.1%.

With `O=c1cc(-c2ccc(O)c(O)c2)oc2cc(O[C@@H]3O[C@H](CO)[C@@H](O)[C@H](O)[C@H]3O)cc(O)c12` [Luteolin 7-O-β-D-glucopyranoside, luteolin 7-O-β-D-glucopyranoside], in experiment [1], the “ONOO− Inhibition (%), Mean ± SD” value is 80.23 ± 4.22 % and it took 2.51 ± 0.05 µM to reach a half-maximal effect (EC50). Further, at yeast α-glucosidase, the Ki came to 251 µM; the “type of α-glucosidase inhibition (in words)” value was “competitive inhibition”; the “α-Glucosidase Inhibition (%), Mean ± SD” value is recorded as 25.53 ± 1.21 %; the IC50 was 249 ± 2.56 µM. For the same molecule, the IC50 at human recombinant PTP1B was more than 400 µM. In addition, in experiment [3], the “DPPH Inhibition (%), Mean ± SD” value came out at 58.97 ± 1.95 % and the EC50 was 4.79 ± 0.19 µM.

As to `CC(C)(S)[C@@H](N)C(=O)O` [Penicillamine, penicillamine, reference compound], in experiment [1], the “ONOO− Inhibition (%), Mean ± SD” value is given as 56.57 ± 2.03 % and a half-maximal response (EC50) required 2.28 ± 0.02 µM.

The values are drawn from PMC6385118, “Korean Thistle (Cirsium japonicum var. maackii (Maxim.) Matsum.): A Potential Dietary Supplement against Diabetes and Alzheimer’s Disease” (Molecules, 2019).
